Measurements as given in paper PMC2613801 (Bioorganic & medicinal chemistry, 2008).

Tests used:
TRPV1 [1] = target: T1, TRPV1 (Rattus norvegicus, UniProt O35433); assay: capsaicin-induced 45Ca2+-uptake in TRPV1ε-NIH3T3 cells; assay type: cell-based; conditions: for Hill Slope ± SEM: enhancement of 45Ca2+-uptake in presence of 2 µM capsaicin; for enhancing activity (in words): in presence of 2 µM capsaicin
TRPV1 [2] = target: T1, TRPV1; assay: capsaicin-induced 45Ca2+-uptake in primary dorsal root ganglion; assay type: cell-based; conditions: for Hill Slope ± SEM / enhancing activity (in words): primary DRG cells; for Hill Slope ± SEM: ~0.5 µM capsaicin, single assay run in quadruplicate wells; for enhancing activity (in words): in presence of capsaicin
[3] = target: human A3 adenosine receptor; conditions: read-out: Ki value at the A3 receptor; ref [30]; cited from earlier work
TRPV1 [4] = target: T1, TRPV1; assay: intracellular Ca2+ imaging; assay type: cell-based

T1 sequence (O35433 whole entry): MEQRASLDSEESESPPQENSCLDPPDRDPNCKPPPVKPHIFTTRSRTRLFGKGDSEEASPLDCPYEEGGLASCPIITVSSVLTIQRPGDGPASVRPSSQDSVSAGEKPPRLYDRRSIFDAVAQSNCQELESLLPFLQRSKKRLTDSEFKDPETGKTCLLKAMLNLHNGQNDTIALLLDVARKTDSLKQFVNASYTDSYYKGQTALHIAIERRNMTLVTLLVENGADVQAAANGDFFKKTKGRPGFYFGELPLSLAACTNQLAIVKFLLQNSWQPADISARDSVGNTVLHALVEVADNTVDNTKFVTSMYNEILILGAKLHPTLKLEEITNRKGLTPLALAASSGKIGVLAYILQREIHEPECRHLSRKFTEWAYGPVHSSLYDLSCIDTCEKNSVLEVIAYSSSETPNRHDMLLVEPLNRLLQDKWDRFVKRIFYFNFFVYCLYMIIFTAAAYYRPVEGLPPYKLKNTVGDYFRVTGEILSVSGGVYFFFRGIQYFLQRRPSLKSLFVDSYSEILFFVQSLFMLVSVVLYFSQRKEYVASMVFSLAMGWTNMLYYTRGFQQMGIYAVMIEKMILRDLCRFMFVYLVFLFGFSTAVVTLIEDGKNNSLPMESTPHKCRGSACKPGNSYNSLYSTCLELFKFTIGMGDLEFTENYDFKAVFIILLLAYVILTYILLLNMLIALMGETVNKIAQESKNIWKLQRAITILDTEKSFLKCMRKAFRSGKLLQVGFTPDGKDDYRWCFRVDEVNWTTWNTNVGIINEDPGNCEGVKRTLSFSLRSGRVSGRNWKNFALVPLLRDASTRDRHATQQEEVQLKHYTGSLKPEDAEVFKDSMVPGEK

CCCC1C(C(=O)OCC)=C(c2ccccc2)N=C(C)/C1=C(/O)SCC (stereo not shown) [Compound 18]
Hill Slope ± SEM (TRPV1 [1]): 1.38 ± 0.23 | enhancing activity (in words) (TRPV1 [1]): strong, dosedependent effects | EC50 (TRPV1 [2]): 10.5 ± 1.1 µM | Hill Slope ± SEM (TRPV1 [2]): 1.47 ± 0.16

CCOC(=O)C1=C(C)NC(c2ccccc2)=C(C(=O)OCc2ccccc2)C1C#Cc1ccccc1 (stereo not shown) [MRS1191, 1,4-dihydro-2-methyl-6-phenyl-4-(phenylethynyl)-3,5-pyridinedicarboxylic acid, 3-ethyl 5-(phenylmethyl) ester, reference compound]
enhancing activity (in words) (TRPV1 [1]): no enhancing effect

COC(=O)C1=C(C)NC(C)=C(C(=O)OCCN(C)Cc2ccccc2)C1c1cccc([N+](=O)[O-])c1 (stereo not shown) [nicardipine, reference compound]
enhancing activity (in words) (TRPV1 [1]): not enhancers | enhancing activity (in words) (TRPV1 [2]): not enhancers | Ki [3]: 3.25 µM

CO/C(O)=C1\C(C)=NC(C)=C([N+](=O)[O-])[C@H]1c1ccccc1C(F)(F)F [S(–)-Bay K 8644, reference compound]
enhancing activity (in words) (TRPV1 [1]): not enhancers | enhancing activity (in words) (TRPV1 [2]): not enhancers

CCOC(=O)C1=C(C2CCCCC2)NC(C)=C(C(=O)SCC)C1CC (racemic) [Compound 17, 3-Ethylthio-5-ethyl-2-methyl-4-ethyl-6-cyclohexyl-1,4-(±)-dihydropyridine-3,5-dicarboxylate]
enhancing activity (in words) (TRPV1 [1]): inactive

CCOC(=O)C1=C(c2ccc(F)cc2)NC(C)=C(C(=O)SCCc2ccccc2)C1CC (racemic) [Compound 29, 3-(2-Phenylethylthio)-5-ethyl-2-methyl-4-ethyl-6-(4-fluorophenyl)-1,4-(±)-dihydropyridine-3,5-dicarboxylate]
Hill Slope ± SEM (TRPV1 [1]): 1.18 ± 0.25 | enhancing activity (in words) (TRPV1 [1]): slightly active

CCCC1C(C(=O)SCCc2ccccc2)=C(C)NC(c2ccccc2)=C1C(=O)OCC (racemic) [Compound 26, 3-(2-Phenylethylthio)-5-ethyl-2-methyl-4-propyl-6-phenyl-1,4-(±)-dihydropyridine-3,5-dicarboxylate]
Hill Slope ± SEM (TRPV1 [1]): 1.14 ± 0.32

CCOC(=O)C1=C(c2ccc([N+](=O)[O-])cc2)NC(C)=C(C(=O)SCc2ccccc2)C1CC (racemic) [Compound 31]
enhancing activity (in words) (TRPV1 [1]): neutral | enhancing activity (in words) (TRPV1 [2]): inactive

CCOC(=O)C1=C(c2ccccc2)N=C(C)/C(=C(/O)SCC)C1CC (stereo not shown) [Compound 12]
Hill Slope ± SEM (TRPV1 [1]): 1.55 ± 0.17

CCOC(=O)C1=C(C)NC(c2ccc(F)cc2)=C(C(=O)OCC)C1CC (racemic) [Compound 11, 3,5-Diethyl-2-methyl-4-ethyl-6-(4-fluorophenyl)-1,4-(±)-dihydropyridine-3,5-dicarboxylate]
Hill Slope ± SEM (TRPV1 [1]): 1.86 ± 0.42 | EC50 (TRPV1 [2]): 15.7 ± 1.3 µM | Hill Slope ± SEM (TRPV1 [2]): 2.01 ± 0.77

COc1cc(CNC(=O)CCCC/C=C/C(C)C)ccc1O [capsaicin, reference compound]
ED100 for capsaicin activation of TRPV1 (TRPV1 [1]; pH 7.5): ~ 2 µM | peak ratio (340/380, normalized to baseline) (TRPV1 [4]; 200 nM capsaicin alone, 30 sec, 98 cells): 1.518±0.001

CCOC(=O)C1=C(c2ccccc2)N=C(C)/C(=C(/O)SCCOC)C1CC (stereo not shown) [Compound 23]
fold increase in calcium influx (TRPV1 [1]; 2 µM capsaicin): 5.3 fold | Hill Slope ± SEM (TRPV1 [1]): 1.79 ± 0.17 | enhancing activity (in words) (TRPV1 [1]): strong, dosedependent effects | peak ratio (340/380, normalized to baseline) (TRPV1 [4]; 200 nM capsaicin in the presence of 10 µM 23, 30 sec, 69 cells): 1.701±0.001

CCOC(=O)C1=C(C)NC(c2cccc(Cl)c2)=C(C(=O)OCC)C1CC (racemic) [Compound 9, 3,5-Diethyl-2-methyl-4-ethyl-6-(3-chlorophenyl)-1,4-(±)-dihydropyridine-3,5-dicarboxylate]
Hill Slope ± SEM (TRPV1 [1]): 1.45 ± 0.28 | Hill Slope ± SEM (TRPV1 [2]): 2.24 ± 0.53

CCOC(=O)C1=C(C)NC(c2cccc(F)c2)=C(C(=O)OCC)C1CC (racemic) [Compound 10, 3,5-Diethyl-2-methyl-4-ethyl-6-(3-fluorophenyl)-1,4-(±)-dihydropyridine-3,5-dicarboxylate]
Hill Slope ± SEM (TRPV1 [1]): 1.98 ± 0.30 | EC50 (TRPV1 [2]): 20.5 ± 1.1 µM | Hill Slope ± SEM (TRPV1 [2]): 2.64 ± 0.59

CCOC(=O)C1=C(c2ccc(F)cc2)NC(C)=C(C(=O)SCC)C1CC (racemic) [Compound 15, 3-Thioethyl-5-ethyl-2-methyl-4-ethyl-6-(4-fluorophenyl)-1,4-(±)-dihydropyridine-3,5-dicarboxylate]
Hill Slope ± SEM (TRPV1 [1]): 1.82 ± 0.33

CCOC(=O)C1=C(c2cccc(F)c2)NC(C)=C(C(=O)SCC)C1CC (racemic) [Compound 14, 3-Ethylthio-5-ethyl-2-methyl-4-ethyl-6-(3-fluorophenyl)-1,4-(±)-dihydropyridine-3,5-dicarboxylate]
Hill Slope ± SEM (TRPV1 [1]): 1.59 ± 0.33 | enhancing activity (in words) (TRPV1 [1]): strong, dosedependent effects
